Like-named read-outs stand apart in the source and are kept apart here.
System: virus (0.01 MOI) in Vero-E6 cells
Assay: In vitro antiviral activity EC50 assay (CCK8, 48 h, 0.01 MOI virus in Vero-E6 cells)
Assay type: cell-based
Conditions: combination mol./mol.=1/1, combined total concentration
Description: • 1) Vero-E6 cells were digested and passaged. The cells were adjusted to a density of 1×10^5 cells/mL with DMEM containing 10% FBS, then seeded in a 96-well plate (100 μl/well), and incubated in a 35° C., 6% CO2 incubator for 20 h; • 2) Compound 1 and Compound 2 (mol./mol.=1/1) were diluted with DMEM containing 1% FBS to provide compositions with combined total concentrations (Compound 1+Compound 2) of 200 μM, 60 μM, 20 μM, 6 μM, 2 μM, 0.6 μM, 0.2 μM, 0.06 μM, and 0.02 μM; • 3) The culture medium in each well was removed, and the 96-well plate was marked on its lid, washed three times with 1×PBS, and 100 μL of dilutions of the compositions prepared above was added to each well, followed by 100 μL of a 0.01 multiplicity of infection (MOI) virus solution, so as to obtain final combined total concentrations of the compounds (Compound 1+Compound 2) at 100 μM, 30 μM, 10 μM, 3 μM, 1 μM, 0.3 μM, 0.1 μM, 0.03 μM, 0.01 μM. The 96-well plate, including a cell control group and a virus control group, was then incubated in a 35° C., 6% CO2 incubator; • 4) After 48 h, the cell viability was tested with a CCK8 kit.

SMILES | EC50 (Vero C1008, 48 h) [nM] | EC50 (read-out: EC50) [nM]
[2H]C1([2H])C[C@@H](C[C@@H](C#N)NC(=O)[C@@H]2[C@@H]3[C@H](CN2C(=O)[C@@H](NC(=O)C(F)(F)F)C(C)(C)C)C3(C)C)C(=O)N1 [Compound 1] | 1720 | 1560 ± 576
[2H]C(OC(=O)C(C)C)[C@H]1O[C@@H](n2ccc(NO)nc2=O)[C@H](O)[C@@H]1O (stereo partly drawn) [Compound 2, ((2R, 3S, 4R, 5R)-3,4-dihydroxy-5-(4-(hydroxylamino)-2-oxopyrimidin-1 (2H)-yl)tetrahydrofuran-2-yl) deuterated methyl isobutyl ester] | 1560 | 1720 ± 585
